biological target: MCH receptor (Homo sapiens, UniProt Q99705); experiment: Receptor binding assay with Radiolabelled MCH Ligand; design: expressed in transfected cells; host or cells: 293 cells (human kidney, ATCC), transient transfection; crude membranes; conditions: class by percent of control at 10^-7 M or IC50
Procedure, shortened: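 This was a filtration radioligand displacement assay: compounds, first tested at 1 and 0.1 μM and then over a range, inhibited binding of a labelled MCH ligand to transfected 293-cell membranes at room temperature for 60–120 min. Specific binding excluded a cold-MCH nonspecific signal. Ki was derived from IC50 via Cheng-Prusoff, using an independently measured KD.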

MCH receptor, sequence (Q99705 whole entry): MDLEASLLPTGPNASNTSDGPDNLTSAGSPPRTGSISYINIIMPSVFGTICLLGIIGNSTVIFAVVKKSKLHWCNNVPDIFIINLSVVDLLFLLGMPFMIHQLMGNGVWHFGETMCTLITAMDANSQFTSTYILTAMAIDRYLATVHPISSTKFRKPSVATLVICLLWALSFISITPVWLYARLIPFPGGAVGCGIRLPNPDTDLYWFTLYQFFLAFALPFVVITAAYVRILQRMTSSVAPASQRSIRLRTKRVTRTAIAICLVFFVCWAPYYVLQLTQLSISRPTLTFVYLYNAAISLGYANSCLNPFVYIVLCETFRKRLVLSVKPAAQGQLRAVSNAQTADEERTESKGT

| Structure (SMILES) | class |
| --- | --- |
| Cc1nc(N[C@H]2CC[C@@H](NS(=O)(=O)Cc3ccccc3)CC2)cc(N(C)C)n1 [compound 476] | 3 (Class 3: The value of percent of control at 10^−7 M was more than 60% or the value of IC50 was more than 200 nM.) |
| Cc1nc(N[C@H]2CC[C@@H](NC(=O)c3cnn(-c4ccccc4)c3C(F)(F)F)CC2)cc(N(C)C)n1 [compound 238] | 3 (Class 3: The value of percent of control at 10^−7 M was more than 60% or the value of IC50 was more than 200 nM.) |
| Cc1nc(N[C@H]2CC[C@@H](NC(=O)c3ccc(C(C)(C)C)cc3)CC2)cc(N(C)C)n1 [compound 202] | 3 (Class 3: The value of percent of control at 10^−7 M was more than 60% or the value of IC50 was more than 200 nM.) |
| Cc1nc(N[C@H]2CC[C@@H](NC(=S)Nc3ccc(N(C)C)c4ccccc34)CC2)cc(N(C)C)n1 [compound 440] | 3 (Class 3: The value of percent of control at 10^−7 M was more than 60% or the value of IC50 was more than 200 nM.) |
| Cc1nc(N[C@H]2CC[C@@H](NCc3cccc(C(F)(F)F)c3)CC2)cc(N(C)C)n1 [compound 386] | 3 (Class 3: The value of percent of control at 10^−7 M was more than 60% or the value of IC50 was more than 200 nM.) |
| CCC(C)(C)c1ccc(S(=O)(=O)N[C@H]2CC[C@@H](Nc3cc(N(C)C)nc(C)n3)CC2)cc1 [compound 488] | 3 (Class 3: The value of percent of control at 10^−7 M was more than 60% or the value of IC50 was more than 200 nM.) |
| CC(=O)N[C@H]1CC[C@@H](Nc2cc(N(C)C)nc(C)n2)CC1 [compound 199] | 3 (Class 3: The value of percent of control at 10^−7 M was more than 60% or the value of IC50 was more than 200 nM.) |
| Cc1nc(N[C@H]2CC[C@@H](NC(=O)Cc3ccc(OC(F)(F)F)cc3)CC2)cc(N(C)C)n1 [compound 313] | 3 (Class 3: The value of percent of control at 10^−7 M was more than 60% or the value of IC50 was more than 200 nM.) |
| Cc1nc(N[C@H]2CC[C@@H](NC(=O)/C=C/c3ccccc3Cl)CC2)cc(N(C)C)n1 [compound 265] | 3 (Class 3: The value of percent of control at 10^−7 M was more than 60% or the value of IC50 was more than 200 nM.) |
| COC(=O)[C@H](Cc1ccccc1)NC(=O)N[C@H]1CC[C@@H](Nc2cc(N(C)C)nc(C)n2)CC1 (relative stereo) [compound 411] | 3 (Class 3: The value of percent of control at 10^−7 M was more than 60% or the value of IC50 was more than 200 nM.) |
| Cc1nc(N[C@H]2CC[C@@H](NC(=O)c3snnc3C)CC2)cc(N(C)C)n1 [compound 229] | 3 (Class 3: The value of percent of control at 10^−7 M was more than 60% or the value of IC50 was more than 200 nM.) |
| Cc1nc(N[C@H]2CC[C@@H](NC(=O)c3ccccc3C(=O)Nc3cccc4ccccc34)CC2)cc(N(C)C)n1 [compound 332] | 3 (Class 3: The value of percent of control at 10^−7 M was more than 60% or the value of IC50 was more than 200 nM.) |
| Cc1nc(N[C@H]2CC[C@@H](NS(=O)(=O)c3cccc(C(F)(F)F)c3)CC2)cc(N(C)C)n1 [compound 483] | 3 (Class 3: The value of percent of control at 10^−7 M was more than 60% or the value of IC50 was more than 200 nM.) |
| Cc1nc(N[C@H]2CC[C@@H](NC(=O)Cc3ccccc3Br)CC2)cc(N(C)C)n1 [compound 264] | 3 (Class 3: The value of percent of control at 10^−7 M was more than 60% or the value of IC50 was more than 200 nM.) |
| Cc1nc(N[C@H]2CC[C@@H](NC(=O)c3cccc([N+](=O)[O-])c3)CC2)cc(N(C)C)n1 [compound 232, N-(cis-4-{[6-(dimethylamino)-2-methylpyrimidin-4-yl]amino}cyclohexyl)-3-nitrobenzamide] | 3 (Class 3: The value of percent of control at 10^−7 M was more than 60% or the value of IC50 was more than 200 nM.) |
| Cc1nc(N[C@H]2CC[C@@H](NS(=O)(=O)c3cc(Cl)c(Oc4ccc([N+](=O)[O-])cc4Cl)c(Cl)c3)CC2)cc(N(C)C)n1 [compound 495] | 3 (Class 3: The value of percent of control at 10^−7 M was more than 60% or the value of IC50 was more than 200 nM.) |
| Cc1nc(N[C@H]2CC[C@@H](NC(=O)Cc3ccccc3C(=O)Nc3ccc(OC(F)(F)F)cc3)CC2)cc(N(C)C)n1 [compound 297] | 3 (Class 3: The value of percent of control at 10^−7 M was more than 60% or the value of IC50 was more than 200 nM.) |
| Cc1nc(N[C@H]2CC[C@@H](NCc3cc(C(C)(C)C)nn3Cc3ccccc3)CC2)cc(N(C)C)n1 [compound 407] | 3 (Class 3: The value of percent of control at 10^−7 M was more than 60% or the value of IC50 was more than 200 nM.) |
| Cc1nc(N[C@H]2CC[C@@H](NC(=O)c3c(-c4c(F)cccc4Cl)noc3C)CC2)cc(N(C)C)n1 [compound 215, 3-(2-chloro-6-fluorophenyl)-N-(cis-4-{[6-(dimethylamino)-2-methylpyrimidin-4-yl]amino}cyclohexyl)-5-methylisoxazole-4-carboxamide] | 1 (Class 1: The value of percent of control at 10^−7 M was less than 40% or the value of IC50 was less than 50 nM.) |
| Cc1nc(N[C@H]2CC[C@@H](NC(=O)c3ccc(C#N)cc3)CC2)cc(N(C)C)n1 [compound 259] | 3 (Class 3: The value of percent of control at 10^−7 M was more than 60% or the value of IC50 was more than 200 nM.) |

| Structure (SMILES) | class |
| --- | --- |
| Cc1nc(N[C@H]2CC[C@@H](NC(=O)Oc3cccc(C(F)(F)F)c3)CC2)cc(N(C)C)n1 [compound 454] | 3 (Class 3: The value of percent of control at 10^−7 M was more than 60% or the value of IC50 was more than 200 nM.) |
| Cc1nc(N[C@H]2CC[C@@H](NC(=O)c3nn(-c4ccccc4)nc3C)CC2)cc(N(C)C)n1 [compound 228] | 3 (Class 3: The value of percent of control at 10^−7 M was more than 60% or the value of IC50 was more than 200 nM.) |
| Cc1nc(N[C@H]2CC[C@@H](NC(=O)C(=O)c3ccccc3)CC2)cc(N(C)C)n1 [compound 349] | 3 (Class 3: The value of percent of control at 10^−7 M was more than 60% or the value of IC50 was more than 200 nM.) |
| Cc1nc(N[C@H]2CC[C@@H](NC(=O)Nc3ccccc3OC(F)(F)F)CC2)cc(N(C)C)n1 [compound 424] | 3 (Class 3: The value of percent of control at 10^−7 M was more than 60% or the value of IC50 was more than 200 nM.) |
| CCc1cccc(C)c1NC(=O)N[C@H]1CC[C@@H](Nc2cc(N(C)C)nc(C)n2)CC1 [compound 421] | 3 (Class 3: The value of percent of control at 10^−7 M was more than 60% or the value of IC50 was more than 200 nM.) |
| Cc1nc(N[C@H]2CC[C@@H](NC(=O)Cc3csc4ccccc34)CC2)cc(N(C)C)n1 [compound 338] | 3 (Class 3: The value of percent of control at 10^−7 M was more than 60% or the value of IC50 was more than 200 nM.) |
| Cc1nc(N[C@H]2CC[C@@H](NC(=O)c3cc(C(C)(C)C)nn3Cc3ccccc3)CC2)cc(N(C)C)n1 [compound 267] | 3 (Class 3: The value of percent of control at 10^−7 M was more than 60% or the value of IC50 was more than 200 nM.) |
| Cc1nc(N[C@H]2CC[C@@H](NC(=O)c3cc4ccccc4s3)CC2)cc(N(C)C)n1 [compound 203] | 3 (Class 3: The value of percent of control at 10^−7 M was more than 60% or the value of IC50 was more than 200 nM.) |
| Cc1nc(N[C@H]2CC[C@@H](NCc3cnn(-c4ccccc4)c3C(F)(F)F)CC2)cc(N(C)C)n1 [compound 384] | 3 (Class 3: The value of percent of control at 10^−7 M was more than 60% or the value of IC50 was more than 200 nM.) |
| Cc1nc(N[C@H]2CC[C@@H](NC(=O)C3C[C@H]3c3ccccc3)CC2)cc(N(C)C)n1 (stereo partly drawn) [compound 236] | 3 (Class 3: The value of percent of control at 10^−7 M was more than 60% or the value of IC50 was more than 200 nM.) |
| COC(=O)N[C@H]1CC[C@@H](Nc2cc(N(C)C)nc(C)n2)CC1 [compound 467] | 3 (Class 3: The value of percent of control at 10^−7 M was more than 60% or the value of IC50 was more than 200 nM.) |
| Cc1nc(N[C@H]2CC[C@@H](NCC3CCCCC3)CC2)cc(N(C)C)n1 [compound 363] | 3 (Class 3: The value of percent of control at 10^−7 M was more than 60% or the value of IC50 was more than 200 nM.) |
| CCCCCCCCCc1ccc(C(=O)N[C@H]2CC[C@@H](Nc3cc(N(C)C)nc(C)n3)CC2)cc1 [compound 254] | 3 (Class 3: The value of percent of control at 10^−7 M was more than 60% or the value of IC50 was more than 200 nM.) |
| COc1cccc(S(=O)(=O)N[C@H]2CC[C@@H](Nc3cc(N(C)C)nc(C)n3)CC2)c1 [compound 493] | 3 (Class 3: The value of percent of control at 10^−7 M was more than 60% or the value of IC50 was more than 200 nM.) |
| CCOc1ccccc1NC(=S)N[C@H]1CC[C@@H](Nc2cc(N(C)C)nc(C)n2)CC1 [compound 446] | 3 (Class 3: The value of percent of control at 10^−7 M was more than 60% or the value of IC50 was more than 200 nM.) |
| Cc1nc(N[C@H]2CC[C@@H](NCc3ccc(Cl)cc3)CC2)cc(N(C)C)n1 [compound 360] | 3 (Class 3: The value of percent of control at 10^−7 M was more than 60% or the value of IC50 was more than 200 nM.) |
| Cc1nc(N[C@H]2CC[C@@H](NC(=O)Cc3ccc(Oc4ccccc4)cc3)CC2)cc(N(C)C)n1 [compound 300] | 3 (Class 3: The value of percent of control at 10^−7 M was more than 60% or the value of IC50 was more than 200 nM.) |
| Cc1nc(N[C@H]2CC[C@@H](NC(=O)Oc3ccccc3)CC2)cc(N(C)C)n1 [compound 464, phenyl (cis-4-{[6-(dimethylamino)-2-methylpyrimidin-4-yl]amino}cyclohexyl)carbamate] | 3 (Class 3: The value of percent of control at 10^−7 M was more than 60% or the value of IC50 was more than 200 nM.) |
| Cc1nc(N[C@H]2CC[C@@H](NC(=O)c3cccc(C(F)(F)F)c3)CC2)cc(N(C)C)n1 [compound 241, N-(cis-4-{[6-(dimethylamino)-2-methylpyrimidin-4-yl]amino}cyclohexyl)-3-(trifluoromethyl)benzamide] | 3 (Class 3: The value of percent of control at 10^−7 M was more than 60% or the value of IC50 was more than 200 nM.) |

Reference: patent US20090036448A1, “PYRIMIDINE DERIVATIVES AND METHODS OF TREATMENT RELATED TO THE USE THEREOF” (TAISHO PHARMECUTICAL CO., LTD., priority 2004, published 2009)
